How the values were obtained:
[1] = tested on: high fat diet (HFD) induced non-alcoholic fatty liver mice; experiment: High fat diet induced non-alcoholic fatty liver mice model (Example 5); type: in vivo, NIH male mice; settings: for Body weight / Weight ratio of liver / ALT / AST / HDL-C / LDL-C / MDA / SOD / TC / TG: i.g. once daily, HFD, mean ± S.E.M; for ALT / AST / HDL-C / LDL-C / MDA / SOD / TC / TG: serum
Source text: This example describes an in vivo efficacy study of BUDCA disclosed in the present invention using a high fat diet (HFD) induced non-alcoholic fatty liver mice model.
91 NIH male mice of 4 weeks old were obtained from Vital River Laboratories (Beijing, China). After acclimatization for one week, 13 mice were selected as control group (Group 1, G1) with normal chow diet fed, and the other 78 mice were fed with HFD (in which 40% of calories is from fat) for 4 weeks to establish an animal model resembling the pathophysiology of non-alcoholic fatty liver in human.
Following 4 weeks of high fat dietary intervention, the 78 mice were divided into 6 groups according to body weight (n=13 per group): • Group 2, G2: Vehicle control (0.5% CMC-Na solution) • Group 3, G3: Low-dose group of BUDCA (30 mg/kg) • Group 4, G4: Middle-dose group of BUDCA (100 mg/kg) • Group 5, G5: High-dose group of BUDCA (300 mg/kg) • Group 6, G6: BBR control group (Berberine HCl, 150 mg/Kg) • Group 7, G7: UDCA control group (Ursodeoxycholic acid, 150 mg/Kg)
The mice from G2 to G7 were administered with the corresponding testing articles indicated above once daily by intragastric gavage. HFD continued throughout the duration of the treatment of 6 weeks. The normal mice (G1) were treated with vehicle (0.5% CMC-Na solution) via intragastric gavage. At the end of experiment, the following biochemical parameters were measured and tests were carried out: • Body weight, the weight ratio of liver • Total cholesterol (TC) and triglyceride (TG) levels, high density lipoprotein cholesterol (HDL-C) and low density lipoprotein cholesterol (LDL-C) levels • Alanine aminotransferase (ALT) and aspartate aminotransferase (AST) levels • Superoxide dismutase (SOD) activity and malondialdehyde (MDA) level • Oral glucose tolerance test (OGTT) • Histopathological examination of liver ([…] staining)
After 6 weeks treatment, blood was collected via retro-orbital bleeding of each 12-hour fasted animal. Liver was harvested by surgery for histopathology analysis after weight measurement. Then the serum was isolated for the determination of TC, TG, HDL-C, LDL-C, ALT, AST, SOD and MDA.
One week before sacrifice (Week 5 of treatment), an oral glucose tolerance test (OGTT) was performed in 12-hour fasted animals. For the OGTT, all mice received an oral glucose challenge at 2.0 g/Kg and the blood glucose concentrations were determined by glucometer (ACCU-CHEK Active, Roche) at 0, 30, 60, 90 and 120 min.
The liver tissue was histopathologically evaluated by […] staining after frozen section.

[2] = tested on: high fat diet (HFD) induced fatty liver golden hamster; experiment: High fat diet-induced fatty liver golden hamster model (Example 6); type: in vivo, golden hamsters; settings: for Serum TC level on Day 0 / Serum TG level on Day 0: Day 0 (before treatment); for Serum TC level on Day 0 / Serum TG level on Day 0 / Serum TC level, Week 1 / Serum TG level, Week 1 / Serum TC level, Week 3 / Serum TG level, Week 3 / Serum TC level, Week 5 / Serum TG level, Week 5 / Serum TC level, Week 7 / Serum TG level, Week 7: X ± s, n = 8
Source text: This example describes an in vivo efficacy study of BUDCA salt disclosed in the present invention using a high fat diet (HFD) induced fatty liver golden hamster model.
Forty-two SPF golden hamsters with the body weight of 90-100 g were acquired from Vital River Laboratory Animal Technology Co., Ltd. After acclimatization for one week, eight hamsters were selected as normal control group (Group 1), which were fed with normal chow diet. The rest thirty-four hamsters were fed with HFD for two weeks to establish a fatty liver animal model resembling the pathophysiology of NAFLD in human.
For the thirty-four hamsters induced with HFD, twenty-four of them with TC level of 17.96±1.70 mmol/L at the fourteenth day post of HFD were selected and randomized into three groups (n=8 per group): • Group 2: Model control (0.5% tragacanth solution 10 ml/kg); • Group 3: Low-dose (BUDCA 50 mg/kg); • Group 4: High-dose (BUDCA 200 mg/kg)
The hamsters from Group 2 to 4 were treated with corresponding testing articles indicated above once a day by intragastric gavage, and HFD continued throughout the duration of the 7-week administration. The normal hamsters in Group 1 were treated with 0.5% tragacanth solution (10 ml/kg) by intragastric gavage. Serum lipid and blood glucose level, liver function index, food intake and body weight were measured throughout the study. After the 7-week administration, the hamsters were sacrificed and dissected for the general observation and histopathological analysis of liver tissue.

[3] = BUDCA 50 mg/kg i.g. once a day, Week 1
[4] = BUDCA 200 mg/kg i.g. once a day, Week 1
[5] = BUDCA 200 mg/kg i.g. once a day
[6] = both high-dose and low-dose group, P<0.01, FIG. 16
[7] = both medicated groups, P<0.01, FIG. 22

COc1ccc2cc3[n+](cc2c1OC)CCc1cc2c(cc1-3)OCO2.C[C@H](CCC(=O)[O-])[C@H]1CC[C@H]2[C@@H]3[C@@H](O)C[C@@H]4C[C@H](O)CC[C@]4(C)[C@H]3CC[C@]12C [BUDCA, berberine ursodeoxycholate]
Body weight ([1]; BUDCA 30 mg/kg (G3), 6 weeks): 40.3 ± 1.18 g | Weight ratio of liver ([1]; BUDCA 30 mg/kg (G3), 6 weeks): 4.33 ± 0.13% | Body weight ([1]; BUDCA 100 mg/kg (G4), 6 weeks): 41.7 ± 1.59 g | Weight ratio of liver ([1]; BUDCA 100 mg/kg (G4), 6 weeks): 4.15 ± 0.09% | Body weight ([1]; BUDCA 300 mg/kg (G5), 6 weeks): 41.5 ± 1.16 g | Weight ratio of liver ([1]; BUDCA 300 mg/kg (G5), 6 weeks): 4.27 ± 0.10% | Effect on symptoms of non-alcoholic fatty liver (overall efficacy) ([1]; BUDCA 30-300 mg/kg, berberine or ursodeoxycholic acid monotherapy 150 mg/Kg, 6 weeks): dose-dependently ameliorated symptoms of non-alcoholic fatty liver | Gastrointestinal side effects at the time of sacrifice ([1]; BUDCA treated animals, 6 weeks i.g.): no gastrointestinal side effects were observed | ALT ([1]; BUDCA 30 mg/kg (G3), 6 weeks): 30.6 ± 4.37 U/L | AST ([1]; BUDCA 30 mg/kg (G3), 6 weeks): 148.3 ± 7.15 U/L | HDL-C ([1]; BUDCA 30 mg/kg (G3), 6 weeks): 2.33 ± 0.15 mmol/L | LDL-C ([1]; BUDCA 30 mg/kg (G3), 6 weeks): 1.05 ± 0.09 mmol/L | MDA ([1]; BUDCA 30 mg/kg (G3), 6 weeks): 12.34 ± 2.89 | SOD ([1]; BUDCA 30 mg/kg (G3), 6 weeks): 61.05 ± 11.59 U/mL | TC ([1]; BUDCA 30 mg/kg (G3), 6 weeks): 5.49 ± 0.25 mmol/L | TG ([1]; BUDCA 30 mg/kg (G3), 6 weeks): 1.18 ± 0.20 mmol/L | ALT ([1]; BUDCA 100 mg/kg (G4), 6 weeks): 29.0 ± 3.95 U/L | AST ([1]; BUDCA 100 mg/kg (G4), 6 weeks): 140.2 ± 16.32 U/L | HDL-C ([1]; BUDCA 100 mg/kg (G4), 6 weeks): 2.26 ± 0.22 mmol/L | LDL-C ([1]; BUDCA 100 mg/kg (G4), 6 weeks): 1.06 ± 0.11 mmol/L | MDA ([1]; BUDCA 100 mg/kg (G4), 6 weeks): 8.02 ± 1.08 µM | SOD ([1]; BUDCA 100 mg/kg (G4), 6 weeks): 91.83 ± 4.90 U/mL | TC ([1]; BUDCA 100 mg/kg (G4), 6 weeks): 5.28 ± 0.50 mmol/L | TG ([1]; BUDCA 100 mg/kg (G4), 6 weeks): 0.92 ± 0.06 mmol/L | ALT ([1]; BUDCA 300 mg/kg (G5), 6 weeks): 27.8 ± 3.08 U/L | AST ([1]; BUDCA 300 mg/kg (G5), 6 weeks): 163.5 ± 11.63 U/L | HDL-C ([1]; BUDCA 300 mg/kg (G5), 6 weeks): 2.48 ± 0.15 mmol/L | LDL-C ([1]; BUDCA 300 mg/kg (G5), 6 weeks): 1.03 ± 0.22 mmol/L | MDA ([1]; BUDCA 300 mg/kg (G5), 6 weeks): 7.78 ± 1.66 µM | SOD ([1]; BUDCA 300 mg/kg (G5), 6 weeks): 97.54 ± 4.88 U/mL | TC ([1]; BUDCA 300 mg/kg (G5), 6 weeks): 5.95 ± 0.54 mmol/L | TG ([1]; BUDCA 300 mg/kg (G5), 6 weeks): 0.85 ± 0.06 mmol/L | Dose dependence of the effects ([2]; 50 vs 200 mg/kg, 7 weeks): relatively dose-dependent | Serum TC level on Day 0 ([2]; BUDCA 50 mg/kg group): 18.14 ± 1.13 mmol/L | Serum TG level on Day 0 ([2]; BUDCA 50 mg/kg group): 5.97 ± 1.19 mmol/L | Serum TC level, Week 1 [2, 3]: 9.33 ± 1.52 mmol/L | Serum TG level, Week 1 [2, 3]: 3.60 ± 0.78 mmol/L | Serum TC level, Week 3 ([2]; BUDCA 50 mg/kg i.g. once a day): 7.58 ± 2.01 mmol/L | Serum TG level, Week 3 ([2]; BUDCA 50 mg/kg i.g. once a day): 2.98 ± 1.31 mmol/L | Serum TC level, Week 5 ([2]; BUDCA 50 mg/kg i.g. once a day): 10.50 ± 2.89 mmol/L | Serum TG level, Week 5 ([2]; BUDCA 50 mg/kg i.g. once a day): 4.51 ± 3.10 mmol/L | Serum TC level, Week 7 ([2]; BUDCA 50 mg/kg i.g. once a day): 9.78 ± 2.58 mmol/L | Serum TG level, Week 7 ([2]; BUDCA 50 mg/kg i.g. once a day): 3.88 ± 1.21 mmol/L | Serum TC level on Day 0 ([2]; BUDCA 200 mg/kg group): 18.18 ± 1.10 mmol/L | Serum TG level on Day 0 ([2]; BUDCA 200 mg/kg group): 6.31 ± 1.75 mmol/L | Serum TC level, Week 1 [2, 4]: 7.51 ± 0.71 mmol/L | Serum TG level, Week 1 [2, 4]: 3.00 ± 0.67 mmol/L | Serum TC level, Week 3 [2, 5]: 6.75 ± 1.00 mmol/L | Serum TG level, Week 3 [2, 5]: 2.68 ± 1.09 mmol/L | Serum TC level, Week 5 [2, 5]: 5.38 ± 1.24 mmol/L | Serum TG level, Week 5 [2, 5]: 3.04 ± 1.68 mmol/L | Serum TC level, Week 7 [2, 5]: 4.95 ± 0.84 mmol/L | Serum TG level, Week 7 [2, 5]: 1.90 ± 0.66 mmol/L | AI value (arterial stiffness index) vs model control group [2, 6]: significantly decreased | Serum LDL-c level vs model control group [2, 6]: significantly decreased | Value of TC/HDL-c vs model control group [2, 6]: significantly decreased | TC level vs model control group ([2]; both low-dose (50 mg/kg) and high-dose (200 mg/kg) group, P<0.01): significantly declined | Food intake vs model control group ([2]; both medicated groups (50 and 200 mg/kg), P>0.05): no significant difference on food intake | Serum AST level vs model control group ([2]; both medicated groups, after 7-week administration, P<0.01, FIG. 17): significantly declined | Serum ALT level vs model control group ([2]; both medicated groups, after 7-week administration, P<0.01, FIG. 18): significantly declined | Color of livers vs model control group ([2]; both medicated groups, FIG. 20): improved | Liver weight vs model control group ([2]; both medicated groups, P<0.01, FIG. 19): significantly decreased | Content of TC and TG in liver vs model control group ([2]; both medicated groups, P<0.01, FIG. 21): significantly decreased | Inflammation score of liver tissue vs model control group [2, 7]: significantly decreased | Positive area for oil red vs model control group [2, 7]: significantly decreased | TG level vs model control group, Week 1 and Week 7 ([2]; high-dose group (200 mg/kg), Week 1 and Week 7, P<0.01): significantly declined | Serum LDL-c level, value of TC/HDL-c and AI value compared with normal control group ([2]; high-dose group (200 mg/kg), after 7-week administration): very similar to those of normal control group | HDL-c level vs model control group ([2]; high-dose group (200 mg/kg), P<0.01): significantly declined | Body weight, first week of treatment ([2]; high-dose group (200 mg/kg), P<0.05): significantly reduced in the first week of treatment | Body weight, rest time of treatment ([2]; high-dose group (200 mg/kg), P>0.05): no significant changes were observed in the rest time of treatment | Color of livers ([2]; high-dose group (200 mg/kg), similar to normal control group): ruddy | Body weight vs model control group ([2]; low-dose and high-dose group, at sacrifice, P>0.05): no significant change observed | TG level vs model control group, Week 1 ([2]; low-dose group (50 mg/kg), Week 1, P<0.01): significantly declined | Body weight throughout the study ([2]; low-dose group (50 mg/kg), P>0.05): No significant changes were observed
